# Measured values taken from patent US11596639B2, “Substituted indole Mcl-1 inhibitors” (Vanderbilt University, priority 2016, dated 2023).
# How the values were obtained:
# [1] = target: Mcl-1 (Homo sapiens (Human), UniProt Q07820); experiment: Fluorescence polarization anisotropy (FPA) competition assay, FITC-Bak or FITC-Bim BH3 peptide; assay type: binding; details: read-out: Ki for Inhibition of Mcl-1 by FPA assay
# [2] = tested on: H929 human cancer cell lines; experiment: Cellular viability / proliferation (Cell TiterGlo, 72 h); assay type: cell-based; details: Homo sapiens, NCI-H929, 72 h, read-out: GI50 on cellular proliferation of H929 human cancer cell lines, H929 cells, 72 h, Cell TiterGlo, 10% FBS
# Method in brief: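 Top dose 50 μM, serially diluted 2-fold, applied one day after seeding (1,000 cells/well, 10% FBS), DMSO below 1%.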
# Mcl-1, sequence (Q07820 172-327): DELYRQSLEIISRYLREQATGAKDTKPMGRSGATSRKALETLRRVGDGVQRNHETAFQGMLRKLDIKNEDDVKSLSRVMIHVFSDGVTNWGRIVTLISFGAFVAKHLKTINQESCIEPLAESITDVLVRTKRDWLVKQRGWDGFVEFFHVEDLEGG
SMILES,Ki [1] [nM],GI50 [2] [nM]
"Cc1cc(OCCCc2c3n(c4c(-c5c(C)nn(C)c5C)c(Cl)ccc24)[C@H](C)CN(c2ccc4nc(C(=O)O)ccc4c2)C3=O)cc(C)c1Cl [Example 102, (R)-6-(7-Chloro-10-(3-(4-chloro-3,5-dimethylphenoxy)propyl)-4-methyl-1-oxo-6-(1,3,5-trimethyl-1H-pyrazol-4-yl)-3,4-dihydropyrazino[1,2-a]indol-2(1H)-yl)quinoline-2-carboxylic acid]",1.5,4900
"Cc1cc(N2C[C@@H](C)n3c(c(CCCOc4cc(C)c(Cl)c(C)c4)c4ccc(Cl)c(-c5c(C)nn(C)c5C)c43)C2=O)c2c(c1)cc(C(N)=O)n2C [Example 332, (R)-7-(7-Chloro-10-(3-(4-chloro-3,5-dimethylphenoxy)propyl)-4-methyl-1-oxo-6-(1,3,5-trimethyl-1H-pyrazol-4-yl)-3,4-dihydropyrazino[1,2-a]indol-2(1H)-yl)-1,5-dimethyl-1H-indole-2-carboxamide]",2.8,670
"Cc1cc(OCCCc2c3n(c4c(-c5c(C)nn(C)c5C)c(Cl)ccc24)[C@H](C)CN(c2cn(C)c4cc(-c5nnn(C)n5)ccc24)C3=O)cc(C)c1Cl [Example 370, (R)-7-Chloro-10-(3-(4-chloro-3,5-dimethylphenoxy)propyl)-4-methyl-2-(1-methyl-6-(2-methyl-2H-tetrazol-5-yl)-1H-indol-3-yl)-6-(1,3,5-trimethyl-1H-pyrazol-4-yl)-3,4-dihydropyrazino[1,2-a]indol-1(2H)-one]",2.8,4500
"Cc1ccnc(-c2ccc3c(c2)c(N2C[C@@H](C)n4c(c(CCCOc5cc(C)c(Cl)c(C)c5)c5ccc(Cl)c(-c6c(C)nn(C)c6C)c54)C2=O)cn3C)n1 [Example 418, (R)-7-Chloro-10-(3-(4-chloro-3,5-dimethylphenoxy)propyl)-4-methyl-2-(1-methyl-5-(4-methylpyrimidin-2-yl)-1H-indol-3-yl)-6-(1,3,5-trimethyl-1H-pyrazol-4-yl)-3,4-dihydropyrazino[1,2-a]indol-1(2H)-one]",1.4,900
"Cc1cc(OCCCc2c3n(c4c(-c5c(C)nn(C)c5C)c(Cl)ccc24)[C@H](C)CN(c2cn(C)c4ccc(C(=O)Nc5ccccc5)cc24)C3=O)cc(C)c1Cl [Example 285, 3-[(4R)-7-chloro-10-[3-(4-chloro-3,5-dimethyl-phenoxy)propyl]-4-methyl-1-oxo-6-(1,3,5-trimethylpyrazol-4-yl)-3,4-dihydropyrazino[1,2-a]indol-2-yl]-1-methyl-N-phenyl-indole-5-carboxamide]",< 1,5300
"Cc1cc(OCCCc2c3n(c4c(-c5c(C)nn(C)c5C)c(Cl)ccc24)[C@H](C)CN(c2cn(C)c4ccc(C(=O)Nc5ccccn5)cc24)C3=O)cc(C)c1Cl [Example 280, 3-[(4R)-7-chloro-10-[3-(4-chloro-3,5-dimethyl-phenoxy)propyl]-4-methyl-1-oxo-6-(1,3,5-trimethylpyrazol-4-yl)-3,4-dihydropyrazino[1,2-a]indol-2-yl]-1-methyl-N-(2-pyridyl)indole-5-carboxamide]",1.5,2200
"Cc1cc(OCCCc2c3n(c4c(-c5c(C)nn(C)c5C)c(Cl)ccc24)[C@H](C)CN(c2cn(C)c4cc(-c5nnco5)ccc24)C3=O)cc(C)c1Cl [Example 343, (R)-7-Chloro-10-(3-(4-chloro-3,5-dimethylphenoxy)propyl)-4-methyl-2-(1-methyl-6-(1,3,4-oxadiazol-2-yl)-1H-indol-3-yl)-6-(1,3,5-trimethyl-1H-pyrazol-4-yl)-3,4-dihydropyrazino[1,2-a]indol-1(2H)-one]",3.7,3600
"Cc1cc(N2C[C@@H](C)n3c(c(CCCOc4cc(C)c(Cl)c(C)c4)c4ccc(Cl)c(-c5c(C)ncnc5C)c43)C2=O)c2c(c1)cc(C(=O)O)n2Cc1ccccn1 [Example 296, 7-[(4R)-7-chloro-10-[3-(4-chloro-3,5-dimethyl-phenoxy)propyl]-6-(4,6-dimethylpyrimidin-5-yl)-4-methyl-1-oxo-3,4-dihydropyrazino[1,2-a]indol-2-yl]-5-methyl-1-(2-pyridylmethyl)indole-2-carboxylic acid]",< 1,240
"CCn1nc2c(N3C[C@@H](C)n4c(c(CCCOc5cc(C)c(Cl)c(C)c5)c5ccc(Cl)c(-c6c(C)nn(C)c6C)c54)C3=O)cccc2c1C(=O)O [Example 117, (R)-7-(7-chloro-10-(3-(4-chloro-3,5-dimethylphenoxy)propyl)-4-methyl-1-oxo-6-(1,3,5-trimethyl-1H-pyrazol-4-yl)-3,4-dihydropyrazino[1,2-a]indol-2(1H)-yl)-2-ethyl-2H-indazole-3-carboxylic acid]",< 1,390
"Cc1cc(OCCCc2c3n(c4c(-c5c(C)n[nH]c5C)c(Cl)ccc24)CCCN(c2cc(C(=O)O)cc4c2ccn4C)C3=O)cc(C)c1Cl [Example 72, 4-(8-chloro-11-(3-(4-chloro-3,5-dimethylphenoxy)propyl)-7-(3,5-dimethyl-1H-pyrazol-4-yl)-1-oxo-4,5-dihydro-1H-[1,4]diazepino[1,2-a]indol-2(3H)-yl)-1-methyl-1H-indole-6-carboxylic acid]",< 1,4700
"COCCn1c(C(=O)O)cc2cc(C)cc(N3C[C@@H](C)n4c(c(CCCOc5cc(C)c(Cl)c(C)c5)c5ccc(Cl)c(-c6c(C)nn(C)c6C)c54)C3=O)c21 [Example 470, (R)-7-(7-Chloro-10-(3-(4-chloro-3,5-dimethylphenoxy)propyl)-4-methyl-1-oxo-6-(1,3,5-trimethyl-1H-pyrazol-4-yl)-3,4-dihydropyrazino[1,2-a]indol-2(1H)-yl)-1-(2-methoxyethyl)-5-methyl-1H-indole-2-carboxylic acid]",< 1,< 200
"Cc1cc(OCCCc2c3n(c4c(-c5c(C)nn(C)c5C)c(Cl)ccc24)[C@H](C)CN(c2cccc4c2cc(C#N)n4C)C3=O)cc(C)c1Cl [Example 301, 4-[(4R)-7-chloro-10-[3-(4-chloro-3,5-dimethyl-phenoxy)propyl]-4-methyl-1-oxo-6-(1,3,5-trimethylpyrazol-4-yl)-3,4-dihydropyrazino[1,2-a]indol-2-yl]-1-methyl-indole-2-carbonitrile]",2.8,8300
"Cc1cc(OCCCc2c3n(c4c(-c5c(C)nn(C)c5C)c(Cl)ccc24)[C@H](C)CN(c2cc(C(=O)O)c4ccccc4c2)C3=O)cc(C)c1Cl [Example 188, (R)-3-(7-Chloro-10-(3-(4-chloro-3,5-dimethylphenoxy)propyl)-4-methyl-1-oxo-6-(1,3,5-trimethyl-1H-pyrazol-4-yl)-3,4-dihydropyrazino[1,2-a]indol-2(1H)-yl)-1-naphthoic acid]",6.4,2700
"COc1ccc(N2C[C@@H](C)n3c(c(CCCOc4cc(C)c(Cl)c(C)c4)c4ccc(Cl)c(-c5c(C)nn(C)c5C)c43)C2=O)c2c1cc(C(=O)O)n2Cc1ccccn1 [Example 313, 7-[(4R)-7-chloro-10-[3-(4-chloro-3,5-dimethyl-phenoxy)propyl]-4-methyl-1-oxo-6-(1,3,5-trimethylpyrazol-4-yl)-3,4-dihydropyrazino[1,2-a]indol-2-yl]-4-methoxy-1-(2-pyridylmethyl)indole-2-carboxylic acid]",< 1,< 200
